Data from patent publication US8476264B2, “N-(3-(2-amino-6,6-difluoro-4,4A,5,6,7,7A-hexahydro-cyclopenta[E][1,3]oxazin-4-yl)-phenylamides as BACE1 inhibitors” (Hoffmann-La Roche Inc., priority 2011, dated 2013).

What follows are compounds tested against T1, BACE1 (Homo sapiens, UniProt P56817) (assay: Cellular Aβ-lowering assay (Aβ40 ELISA)). Conditions: HEK293 cells stably expressing human APP wt (APP695); Aβ40 in supernatant after 18-20 hrs; read-out: BACE1 cell act. Aβ40 IC50.
T1 construct: Human HEK293 cells which are stably transfected with a vector expressing a cDNA of the human APP wt gene (APP695); endogenous in cells; host or cells: HEK293 stably transfected with human APP695 wt
Format: cell-based
Description: Cellular Aβ-Lowering Assay:
Human HEK293 cells which are stably transfected with a vector expressing a cDNA of the human APP wt gene (APP695) were used to assess the potency of the compounds in a cellular assay. The cells were seeded in 96-well microtiter plates in cell culture medium (Iscove, plus 10% (v/v) fetal bovine serum, glutamine, penicillin/streptomycin) to about 80% confluence and the compounds were added at a 10× concentration in 1/10 volume of medium without FCS containing 8% DMSO (final concentration of DMSO was kept at 0.8% v/v). After 18-20 hrs incubation at 37° C. and 5% CO2 in a humidified incubator the culture supernatant was harvested for the determination of Aβ40 concentrations. 96 well ELISA plates (e.g., Nunc MaxiSorb) were coated with monoclonal antibody which specifically recognize the C-terminal end of Aβ40 (Brockhaus et al., NeuroReport 9, 1481-1486; 1998). After blocking of non-specific binding sites with e.g. 1% BSA and washing, the culture supernatants were added in suitable dilutions together with a horseradish peroxidase-coupled Aβ detection antibody (e.g., antibody 4G8, Senetek, Maryland Heights, Mo.) and incubated for 5 to 7 hrs. Subsequently the wells of the microtiter plate were washed extensively with Tris-buffered saline containing 0.05% Tween 20 and the assay was developed with tetramethylbenzidine/H2O2 in citric acid buffer. After stopping the reaction with one volume 1 N H2SO4 the reaction was measured in an ELISA reader at 450 nm wavelength. The concentrations of Aβ in the culture supernatants were calculated from a standard curve obtained with known amounts of pure Aβ peptide.

T1 sequence (P56817 46-501): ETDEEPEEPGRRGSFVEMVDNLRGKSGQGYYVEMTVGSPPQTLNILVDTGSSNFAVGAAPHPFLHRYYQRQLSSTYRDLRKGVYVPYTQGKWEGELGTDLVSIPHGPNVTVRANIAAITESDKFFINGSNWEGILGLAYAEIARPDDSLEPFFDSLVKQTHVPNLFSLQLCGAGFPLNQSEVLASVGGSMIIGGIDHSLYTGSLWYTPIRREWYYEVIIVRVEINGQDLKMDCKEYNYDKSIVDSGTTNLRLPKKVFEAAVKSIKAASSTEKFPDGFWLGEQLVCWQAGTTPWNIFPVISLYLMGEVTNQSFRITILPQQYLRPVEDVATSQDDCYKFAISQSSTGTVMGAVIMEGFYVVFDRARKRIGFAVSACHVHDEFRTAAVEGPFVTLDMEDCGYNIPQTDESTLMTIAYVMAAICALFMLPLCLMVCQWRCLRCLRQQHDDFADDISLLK

IC50	Structure (SMILES)
5.5 nM	NC1=N[C@@](c2cc(NC(=O)c3nn(C(F)F)cc3Cl)ccc2F)(C(F)F)[C@H]2CC(F)(F)C[C@H]2O1 [Example 43, 4-Chloro-1-difluoromethyl-1H-pyrazole-3-carboxylic acid [(S)-3-((1R,2R)-2-amino-4-difluoromethyl-6,6-difluoro-4,4a,5,6,7,7a-hexahydro-cyclopenta[e][1,3]oxazin-4-yl)-4-fluoro-phenyl]-amide]
42 nM	Cc1nc(C(=O)Nc2ccc(F)c([C@@]3(C(F)F)N=C(N)O[C@@H]4CC(F)(F)C[C@@H]43)c2)co1 [Example 44, 2-Methyl-oxazole-4-carboxylic acid [(S)-3-((1R,2R)-2-amino-4-difluoromethyl-6,6-difluoro-4,4a,5,6,7,7a-hexahydro-cyclopenta[e][1,3]oxazin-4-yl)-4-fluoro-phenyl]-amide]
15 nM	NC1=N[C@](CF)(c2cc(NC(=O)c3cnc(OCC4CC4)cn3)ccc2F)[C@H]2CC(F)(F)C[C@H]2O1 [Example 25, 5-Cyclopropylmethoxy-pyrazine-2-carboxylic acid [(S)-3-((1R,2R)-2-amino-6,6-difluoro-4-fluoromethyl-4,4a,5,6,7,7a-hexahydro-cyclopenta[e][1,3]oxazin-4-yl)-4-fluoro-phenyl]-amide]
11100 nM	N#Cc1ccc(C(=O)Nc2ccc(F)c([C@]3(CF)N=C(N)O[C@@]4(CF)CC(F)(F)C[C@H]43)c2)nc1 [Example 45, 5-Cyano-pyridine-2-carboxylic acid [3-((1S,7aS)-2-(R)-amino-6,6-difluoro-4,7a-bis-fluoromethyl-4,4a,5,6,7,7a-hexahydro-cyclopenta[e][1,3]oxazin-4-yl)-4-fluoro-phenyl]-amide]
5.5 nM	N#Cc1cnc(C(=O)Nc2ccc(F)c([C@@]3(CF)N=C(N)O[C@@H]4CC(F)(F)C[C@@H]43)c2)c(Cl)c1 [Example 19, 3-Chloro-5-cyano-pyridine-2-carboxylic acid [(S)-3-((1R,2R)-2-amino-6,6-difluoro-4-fluoromethyl-4,4a,5,6,7,7a-hexahydro-cyclopenta[e][1,3]oxazin-4-yl)-4-fluoro-phenyl]-amide]
85 nM	NC1=N[C@](CF)(c2cc(NC(=O)c3ccc(Cl)cn3)ccc2F)[C@H]2CC(F)(F)C[C@@]2(CF)O1 [Example 47, 5-Chloro-pyridine-2-carboxylic acid [3-((1R,7aR)-2-(S)-amino-6,6-difluoro-4,7a-bis-fluoromethyl-4,4a,5,6,7,7a-hexahydro-cyclopenta[e][1,3]oxazin-4-yl)-4-fluoro-phenyl]-amide]
4.1 nM	NC1=N[C@](CF)(c2cc(NC(=O)c3ncc(C(F)(F)F)cc3F)ccc2F)[C@H]2CC(F)(F)C[C@H]2O1 [Example 17, 3-Fluoro-5-trifluoromethyl-pyridine-2-carboxylic acid [(S)-3-((1R,2R)-2-amino-6,6-difluoro-4-fluoromethyl-4,4a,5,6,7,7a-hexahydro-cyclopenta[e][1,3]oxazin-4-yl)-4-fluoro-phenyl]-amide]
0.9 nM	NC1=N[C@](CF)(c2cc(NC(=O)c3cnc(OC(F)F)cn3)ccc2F)[C@H]2CC(F)(F)C[C@H]2O1 [Example 21, 5-Difluoromethoxy-pyrazine-2-carboxylic acid [(S)-3-((1R,2R)-2-amino-6,6-difluoro-4-fluoromethyl-4,4a,5,6,7,7a-hexahydro-cyclopenta[e][1,3]oxazin-4-yl)-4-fluoro-phenyl]-amide]
16 nM	NC1=N[C@](CF)(c2cc(NC(=O)c3cnc(C(F)(F)F)cn3)ccc2F)[C@H]2CC(F)(F)C[C@H]2O1 [Example 28, 5-Trifluoromethyl-pyrazine-2-carboxylic acid [(S)-3-((1R,2R)-2-amino-6,6-difluoro-4-fluoromethyl-4,4a,5,6,7,7a-hexahydro-cyclopenta[e][1,3]oxazin-4-yl)-4-fluoro-phenyl]-amide]
7 nM	NC1=N[C@@](c2cc(NC(=O)c3cnc(OC(F)F)cn3)ccc2F)(C(F)F)[C@H]2CC(F)(F)C[C@H]2O1 [Example 41, 5-Difluoromethoxy-pyrazine-2-carboxylic acid [(S)-3-((1R,2R)-2-amino-4-difluoromethyl-6,6-difluoro-4,4a,5,6,7,7a-hexahydro-cyclopenta[e][1,3]oxazin-4-yl)-4-fluoro-phenyl]-amide]
36 nM	NC1=N[C@](CF)(c2cc(NC(=O)c3ncc(C(F)(F)F)cn3)ccc2F)[C@H]2CC(F)(F)C[C@H]2O1 [Example 31, 5-Trifluoromethyl-pyrimidine-2-carboxylic acid [(S)-3-((1R,2R)-2-amino-6,6-difluoro-4-fluoromethyl-4,4a,5,6,7,7a-hexahydro-cyclopenta[e][1,3]oxazin-4-yl)-4-fluoro-phenyl]-amide]
17 nM	NC1=N[C@](CF)(c2cc(NC(=O)c3ccc(OCC(F)(F)F)cn3)ccc2F)[C@H]2CC(F)(F)C[C@H]2O1 [Example 9, 5-(2,2,2-Trifluoro-ethoxy)-pyridine-2-carboxylic acid [(S)-3-((1R,2R)-2-amino-6,6-difluoro-4-fluoromethyl-4,4a,5,6,7,7a-hexahydro-cyclopenta[e][1,3]oxazin-4-yl)-4-fluoro-phenyl]-amide]
0.8 nM	NC1=N[C@](CF)(c2cc(NC(=O)c3ncc(C(F)(F)F)cc3Cl)ccc2F)[C@H]2CC(F)(F)C[C@H]2O1 [Example 16, 3-Chloro-5-trifluoromethyl-pyridine-2-carboxylic acid [(S)-3-((1R,2R)-2-amino-6,6-difluoro-4-fluoromethyl-4,4a,5,6,7,7a-hexahydro-cyclopenta[e][1,3]oxazin-4-yl)-4-fluoro-phenyl]-amide]
0.8 nM	CC#CCOc1ccc(C(=O)Nc2ccc(F)c([C@@]3(CF)N=C(N)O[C@@H]4CC(F)(F)C[C@@H]43)c2)nc1 [Example 5, 5-But-2-ynyloxy-pyridine-2-carboxylic acid [(S)-3-((1R,2R)-2-amino-6,6-difluoro-4-fluoromethyl-4,4a,5,6,7,7a-hexahydro-cyclopenta[e][1,3]oxazin-4-yl)-4-fluoro-phenyl]-amide]
44 nM	NC1=N[C@@](c2cc(NC(=O)c3cnc(C(F)F)cn3)ccc2F)(C(F)F)[C@H]2CC(F)(F)C[C@H]2O1 [Example 40, 5-Difluoromethyl-pyrazine-2-carboxylic acid [(S)-3-((1R,2R)-2-amino-4-difluoromethyl-6,6-difluoro-4,4a,5,6,7,7a-hexahydro-cyclopenta[e][1,3]oxazin-4-yl)-4-fluoro-phenyl]-amide]
36 nM	CC(F)(F)c1cnc(C(=O)Nc2ccc(F)c([C@@]3(CF)N=C(N)O[C@@H]4CC(F)(F)C[C@@H]43)c2)cn1 [Example 29, 5-(1,1-Difluoro-ethyl)-pyrazine-2-carboxylic acid [(S)-3-((1R,2R)-2-amino-6,6-difluoro-4-fluoromethyl-4,4a,5,6,7,7a-hexahydro-cyclopenta[e][1,3]oxazin-4-yl)-4-fluoro-phenyl]-amide]
